Data published in patent US20110282056A1, “PROTEIN KINASE INHIBITORS AND USE THEREOF” (priority 2008, published 2011).

Assays:
Type in all cases: biochemical
VEGFR3 = biological target: T1, VEGFR3 (Homo sapiens, UniProt P35916); assay: VEGFR3 enzyme activity assay (Caliper LC3000 mobility shift); conditions: 400 uM ATP (Km), 0.4 nM VEGFR3, 90 minutes at RT
T1 construct: purchased Millpore Corp. (Millipore) 14-681
Method: (§1) Enzyme activity for VEGFR3, VEGFR2 and Flt3 were measured on the Caliper Life Sciences LC3000 (Hopkinton, Mass.). The system utilizes the principle of electroosmotic flow to separate and quantify the amount of phosphorylated-Fluorescein-labelled-peptide (product) from unphosphorylated-Fluorescein-labelled peptide (substrate). The amount of product and substrate are determined by measuring the peak heights from the electropherogram. The enzyme activity is then quantified by dividing the amount of product by the sum of the product and substrate. The inhibitory activity of a sample is measured by comparing the enzyme activity in the presence of sample versus the enzyme activity in the presence of dimethylsufoxide (DMSO). Specific assay conditions for each enzyme are listed below:
(§2) VEGFR3 assay: The peptide substrate at 1 uM (FITC-KKKKEEIYFFF-CONH2; synthesized at Tufts University, Boston, Mass.) was incubated with 400 uM of ATP, corresponding to the Michaelis-Menten (Km) constant of the enzyme/substrate reaction, and 0.4 nM of VEGFR3 (Millpore Corp., Cat. No. 14-681) for 90 minutes at RT. After 90 minutes, the reaction was stopped by the addition of 10 mM EDTA. The substrate and product were then separated on the LC3000.

VEGFR2 = biological target: T2, VEGFR2 (Homo sapiens, UniProt P35968); assay: VEGFR2 enzyme activity assay (Caliper LC3000 mobility shift); conditions: 160 uM ATP (Km), 1 nM VEGFR2, 90 minutes at RT
T2 construct: purchased BPS Bioscience; San Diego, Calif; 40301
Method: as §1
as §2, with “VEGFR2” for “VEGFR3”, “(5-FL-EEPLYWSFPAKKK-CONH2;” for “(FITC-KKKKEEIYFFF-CONH2;”, “160” for “400”, “1” for “0.4”, “VEGFR2 (BPS Bioscience; San Diego, Calif.;” for “VEGFR3 (Millpore Corp.,”, “40301)” for “14-681)”

Flt3 = biological target: T3, Flt3 (Homo sapiens, UniProt P36888); assay: Flt3 enzyme activity assay (Caliper LC3000 mobility shift); conditions: 350 uM ATP (Km), 3 nM Flt3, 90 minutes at RT
T3 construct: purchased BPS Bioscience; San Diego, Calif; 40225
T3 sequence (P36888 27-993): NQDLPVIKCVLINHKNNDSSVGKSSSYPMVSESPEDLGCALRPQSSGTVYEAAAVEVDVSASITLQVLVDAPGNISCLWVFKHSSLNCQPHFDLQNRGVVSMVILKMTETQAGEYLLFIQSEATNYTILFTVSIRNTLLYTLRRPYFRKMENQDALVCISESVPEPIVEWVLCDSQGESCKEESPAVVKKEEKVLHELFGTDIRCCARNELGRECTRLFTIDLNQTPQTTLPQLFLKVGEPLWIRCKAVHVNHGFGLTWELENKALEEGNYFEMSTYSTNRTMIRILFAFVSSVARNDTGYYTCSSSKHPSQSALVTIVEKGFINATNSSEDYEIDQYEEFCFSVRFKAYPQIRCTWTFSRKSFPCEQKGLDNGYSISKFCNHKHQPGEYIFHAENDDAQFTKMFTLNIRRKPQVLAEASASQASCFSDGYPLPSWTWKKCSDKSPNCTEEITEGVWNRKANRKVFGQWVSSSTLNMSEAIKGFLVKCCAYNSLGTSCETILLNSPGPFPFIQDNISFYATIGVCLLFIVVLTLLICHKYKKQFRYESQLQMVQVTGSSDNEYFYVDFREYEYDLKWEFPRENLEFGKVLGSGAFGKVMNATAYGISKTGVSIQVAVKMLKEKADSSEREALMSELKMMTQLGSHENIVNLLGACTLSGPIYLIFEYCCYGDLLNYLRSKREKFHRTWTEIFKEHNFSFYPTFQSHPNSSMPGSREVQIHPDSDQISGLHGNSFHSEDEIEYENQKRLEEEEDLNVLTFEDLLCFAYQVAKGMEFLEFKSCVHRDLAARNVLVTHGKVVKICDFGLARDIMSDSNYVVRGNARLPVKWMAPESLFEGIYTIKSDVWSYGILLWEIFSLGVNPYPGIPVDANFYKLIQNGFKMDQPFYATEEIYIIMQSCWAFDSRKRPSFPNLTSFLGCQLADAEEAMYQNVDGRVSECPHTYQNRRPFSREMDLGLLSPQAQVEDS
Method: as §1
as §2, with “Flt3” for “VEGFR3”, “(FITC-AHA-UEAIYAAPFAKKK-CONH2;” for “(FITC-KKKKEEIYFFF-CONH2;”, “350” for “400”, “3” for “0.4”, “Flt3 (BPS Bioscience; San Diego, Calif.;” for “VEGFR3 (Millpore Corp.,”, “40225)” for “14-681)”

T2 sequence (P35968 20-1356): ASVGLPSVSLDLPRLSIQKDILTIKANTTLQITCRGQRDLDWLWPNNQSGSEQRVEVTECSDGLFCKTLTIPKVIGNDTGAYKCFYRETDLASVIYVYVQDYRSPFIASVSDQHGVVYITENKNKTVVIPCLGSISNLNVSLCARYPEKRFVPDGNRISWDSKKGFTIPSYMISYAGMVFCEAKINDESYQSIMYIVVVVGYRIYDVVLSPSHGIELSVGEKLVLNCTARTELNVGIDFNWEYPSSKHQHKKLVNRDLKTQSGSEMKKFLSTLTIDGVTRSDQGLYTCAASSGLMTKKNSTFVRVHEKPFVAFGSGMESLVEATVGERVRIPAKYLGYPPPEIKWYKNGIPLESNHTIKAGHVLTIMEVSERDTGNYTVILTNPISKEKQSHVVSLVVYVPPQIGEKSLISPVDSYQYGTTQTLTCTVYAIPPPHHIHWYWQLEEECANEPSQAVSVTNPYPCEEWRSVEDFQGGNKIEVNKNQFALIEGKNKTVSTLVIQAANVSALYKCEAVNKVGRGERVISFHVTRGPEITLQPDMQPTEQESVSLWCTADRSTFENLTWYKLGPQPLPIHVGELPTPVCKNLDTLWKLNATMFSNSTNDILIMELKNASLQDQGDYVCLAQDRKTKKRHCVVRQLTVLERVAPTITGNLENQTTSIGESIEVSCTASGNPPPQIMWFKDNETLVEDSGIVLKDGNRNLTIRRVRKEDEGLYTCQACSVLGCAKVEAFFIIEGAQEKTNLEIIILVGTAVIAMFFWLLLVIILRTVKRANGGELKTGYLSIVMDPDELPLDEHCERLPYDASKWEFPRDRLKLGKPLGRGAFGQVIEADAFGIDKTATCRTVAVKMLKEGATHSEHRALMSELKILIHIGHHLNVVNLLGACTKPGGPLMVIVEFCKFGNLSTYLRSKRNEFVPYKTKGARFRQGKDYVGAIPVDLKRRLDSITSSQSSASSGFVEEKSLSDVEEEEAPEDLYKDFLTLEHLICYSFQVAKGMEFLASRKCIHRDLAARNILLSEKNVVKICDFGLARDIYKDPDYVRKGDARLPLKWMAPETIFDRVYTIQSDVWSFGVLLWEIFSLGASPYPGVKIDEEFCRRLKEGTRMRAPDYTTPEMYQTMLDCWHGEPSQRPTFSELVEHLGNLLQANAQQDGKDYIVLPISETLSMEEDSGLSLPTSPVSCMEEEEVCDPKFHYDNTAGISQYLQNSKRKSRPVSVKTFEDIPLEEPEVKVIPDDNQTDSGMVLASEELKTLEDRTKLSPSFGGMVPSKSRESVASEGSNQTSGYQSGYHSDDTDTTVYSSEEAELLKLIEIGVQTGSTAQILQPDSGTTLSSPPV
T1 sequence (P35916 25-1363): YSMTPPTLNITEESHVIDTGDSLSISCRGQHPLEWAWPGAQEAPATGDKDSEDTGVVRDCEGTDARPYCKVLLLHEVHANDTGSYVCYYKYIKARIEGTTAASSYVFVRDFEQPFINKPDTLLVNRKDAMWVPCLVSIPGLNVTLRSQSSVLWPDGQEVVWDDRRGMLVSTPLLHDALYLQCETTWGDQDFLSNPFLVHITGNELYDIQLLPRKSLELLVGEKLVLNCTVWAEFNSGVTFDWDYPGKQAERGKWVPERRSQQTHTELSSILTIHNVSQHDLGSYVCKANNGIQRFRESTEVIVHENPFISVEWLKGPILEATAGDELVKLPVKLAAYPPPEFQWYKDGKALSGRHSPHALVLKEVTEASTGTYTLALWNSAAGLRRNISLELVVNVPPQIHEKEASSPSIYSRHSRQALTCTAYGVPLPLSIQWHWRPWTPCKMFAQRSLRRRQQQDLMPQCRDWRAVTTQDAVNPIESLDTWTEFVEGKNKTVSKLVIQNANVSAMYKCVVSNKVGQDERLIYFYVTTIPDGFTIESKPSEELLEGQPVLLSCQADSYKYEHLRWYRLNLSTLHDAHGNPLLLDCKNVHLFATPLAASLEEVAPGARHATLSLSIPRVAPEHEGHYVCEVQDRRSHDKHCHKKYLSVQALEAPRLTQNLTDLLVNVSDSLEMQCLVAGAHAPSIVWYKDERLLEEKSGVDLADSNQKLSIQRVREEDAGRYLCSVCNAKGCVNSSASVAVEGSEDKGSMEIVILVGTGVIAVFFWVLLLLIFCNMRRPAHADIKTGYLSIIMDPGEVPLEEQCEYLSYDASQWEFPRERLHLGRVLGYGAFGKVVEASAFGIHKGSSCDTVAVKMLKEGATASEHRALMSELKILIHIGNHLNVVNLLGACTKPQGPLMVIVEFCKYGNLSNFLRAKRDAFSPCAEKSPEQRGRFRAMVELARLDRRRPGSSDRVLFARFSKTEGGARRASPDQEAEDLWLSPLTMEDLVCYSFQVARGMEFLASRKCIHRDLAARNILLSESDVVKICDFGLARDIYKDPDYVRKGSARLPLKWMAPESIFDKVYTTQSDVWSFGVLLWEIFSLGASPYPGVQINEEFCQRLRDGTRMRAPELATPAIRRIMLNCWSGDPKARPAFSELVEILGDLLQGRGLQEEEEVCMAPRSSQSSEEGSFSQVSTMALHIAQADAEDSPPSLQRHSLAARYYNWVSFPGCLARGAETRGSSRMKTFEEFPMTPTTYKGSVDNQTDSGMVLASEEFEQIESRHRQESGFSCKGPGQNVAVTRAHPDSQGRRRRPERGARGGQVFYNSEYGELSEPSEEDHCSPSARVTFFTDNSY

COC(=O)c1ccccc1C#Cc1ccnc2[nH]ccc12 [compound 43]
IC50 (VEGFR3): 0.1 to 1 µM | IC50 (VEGFR2): > 1 µM | IC50 (Flt3): 0.1 to 1 µM

C(#Cc1ccnc2[nH]ccc12)c1ccoc1 [compound 44]
IC50 (VEGFR3): 0.1 to 1 µM | IC50 (VEGFR2): > 1 µM | IC50 (Flt3): > 1 µM

CC(=O)Nc1ccccc1C#Cc1ccnc2[nH]ccc12 [compound 45]
IC50 (VEGFR3): 0.1 to 1 µM | IC50 (VEGFR2): > 1 µM | IC50 (Flt3): > 1 µM

COc1cncc(C#Cc2ccnc3[nH]ccc23)c1 [compound 46]
IC50 (VEGFR3): 0.1 to 1 µM | IC50 (VEGFR2): 0.1 to 1 µM | IC50 (Flt3): 0.1 to 1 µM

C(#Cc1ccnc2[nH]ccc12)c1cccc(N2CCOCC2)c1 [compound 47]
IC50 (VEGFR3): 0.1 to 1 µM | IC50 (VEGFR2): > 1 µM | IC50 (Flt3): > 1 µM

FC(F)(F)c1ccccc1C#Cc1ccnc2[nH]ccc12 [compound 48]
IC50 (VEGFR3): 0.1 to 1 µM | IC50 (VEGFR2): > 1 µM | IC50 (Flt3): > 1 µM

COc1ccc(F)cc1C#Cc1ccnc2[nH]ccc12 [compound 49]
IC50 (VEGFR3): 0.1 to 1 µM | IC50 (VEGFR2): > 1 µM | IC50 (Flt3): > 1 µM

CC(=O)c1cccc(C#Cc2ccnc3[nH]ccc23)c1 [compound 50]
IC50 (VEGFR3): 0.1 to 1 µM | IC50 (VEGFR2): > 1 µM | IC50 (Flt3): 0.1 to 1 µM

COc1cccc(C#Cc2ccnc3[nH]ccc23)c1 [compound 51]
IC50 (VEGFR3): 0.1 to 1 µM | IC50 (VEGFR2): > 1 µM | IC50 (Flt3): 0.1 to 1 µM

COc1ccccc1C#Cc1ccnc2[nH]ccc12 [compound 52]
IC50 (VEGFR3): 0.1 to 1 µM | IC50 (VEGFR2): > 1 µM | IC50 (Flt3): > 1 µM

C(#Cc1ccnc2[nH]ccc12)c1cccc(-c2cc[nH]n2)c1 [compound 53]
IC50 (VEGFR3): 0.1 to 1 µM | IC50 (VEGFR2): > 1 µM | IC50 (Flt3): > 1 µM

CCNC(=O)/C=C/c1cccc(C#Cc2ccnc3[nH]ccc23)c1 [compound 54]
IC50 (VEGFR3): 0.1 to 1 µM | IC50 (VEGFR2): > 1 µM | IC50 (Flt3): > 1 µM

COC(=O)c1cccc(C#Cc2ccnc3[nH]ccc23)c1 [compound 55]
IC50 (VEGFR3): 0.1 to 1 µM | IC50 (VEGFR2): > 1 µM | IC50 (Flt3): > 1 µM

O=C(NCc1ccccc1C#Cc1ccnc2[nH]ccc12)C(F)(F)F [compound 56]
IC50 (VEGFR3): 0.1 to 1 µM | IC50 (VEGFR2): > 1 µM | IC50 (Flt3): > 1 µM

Cc1ccncc1C#Cc1ccnc2[nH]ccc12 [compound 57]
IC50 (VEGFR3): 0.1 to 1 µM | IC50 (VEGFR2): 0.1 to 1 µM | IC50 (Flt3): 0.1 to 1 µM

C(#Cc1ccnc2[nH]ccc12)c1ccccc1-n1cccc1 [compound 58]
IC50 (VEGFR3): 0.1 to 1 µM | IC50 (VEGFR2): > 1 µM | IC50 (Flt3): > 1 µM

Fc1cccc(C#Cc2ccnc3[nH]ccc23)c1 [compound 59]
IC50 (VEGFR3): 0.1 to 1 µM | IC50 (VEGFR2): > 1 µM | IC50 (Flt3): > 1 µM

C(#Cc1ccnc2[nH]ccc12)c1cccc2[nH]ccc12 [compound 60]
IC50 (VEGFR3): 0.1 to 1 µM | IC50 (VEGFR2): > 1 µM | IC50 (Flt3): > 1 µM

N#CCc1ccc(C#Cc2ccnc3[nH]ccc23)cc1 [compound 61]
IC50 (VEGFR3): 0.1 to 1 µM | IC50 (VEGFR2): > 1 µM | IC50 (Flt3): 0.1 to 1 µM

Cc1cccc(C#Cc2ccnc3[nH]ccc23)c1 [compound 62]
IC50 (VEGFR3): 0.1 to 1 µM | IC50 (VEGFR2): > 1 µM | IC50 (Flt3): > 1 µM

COc1cccc(C#Cc2ccnc3[nH]ccc23)n1 [compound 63]
IC50 (VEGFR3): 0.1 to 1 µM | IC50 (VEGFR2): > 1 µM | IC50 (Flt3): > 1 µM

CCc1ccccc1C#Cc1ccnc2[nH]ccc12 [compound 64]
IC50 (VEGFR3): 0.1 to 1 µM | IC50 (VEGFR2): > 1 µM | IC50 (Flt3): > 1 µM

C=Cc1cccc(C#Cc2ccnc3[nH]ccc23)c1 [compound 65]
IC50 (VEGFR3): 0.1 to 1 µM | IC50 (VEGFR2): > 1 µM | IC50 (Flt3): > 1 µM

Cn1cncc1C#Cc1ccnc2[nH]ccc12 [compound 66]
IC50 (VEGFR3): 0.1 to 1 µM | IC50 (VEGFR2): 0.1 to 1 µM | IC50 (Flt3): 0.1 to 1 µM

CC(=O)Nc1ccc(C#Cc2ccnc3[nH]ccc23)cc1 [compound 67]
IC50 (VEGFR3): 0.1 to 1 µM | IC50 (VEGFR2): > 1 µM | IC50 (Flt3): > 1 µM

Cc1ccnc(C#Cc2ccnc3[nH]ccc23)c1 [compound 68]
IC50 (VEGFR3): 0.1 to 1 µM | IC50 (VEGFR2): > 1 µM | IC50 (Flt3): > 1 µM

Cc1ccccc1C#Cc1ccnc2[nH]ccc12 [compound 69]
IC50 (VEGFR3): 0.1 to 1 µM | IC50 (VEGFR2): > 1 µM | IC50 (Flt3): > 1 µM

Cc1ccc(C#Cc2ccnc3[nH]ccc23)cc1 [compound 70]
IC50 (VEGFR3): 0.1 to 1 µM | IC50 (VEGFR2): > 1 µM | IC50 (Flt3): > 1 µM

Nc1cccc(C#Cc2cnc3[nH]ccc3c2)c1 [compound 71]
IC50 (VEGFR3): 0.1 to 1 µM | IC50 (VEGFR2): > 1 µM | IC50 (Flt3): > 1 µM

C(#Cc1ccnc2[nH]ccc12)c1ccc2c(c1)OCO2 [compound 72]
IC50 (VEGFR3): 0.1 to 1 µM | IC50 (VEGFR2): > 1 µM | IC50 (Flt3): > 1 µM

COc1ccc(OC)c(C#Cc2ccnc3[nH]ccc23)c1 [compound 73]
IC50 (VEGFR3): 0.1 to 1 µM | IC50 (VEGFR2): > 1 µM | IC50 (Flt3): > 1 µM

COc1cc(C#Cc2ccnc3[nH]ccc23)cc(OC)c1 [compound 74]
IC50 (VEGFR3): > 1 µM | IC50 (VEGFR2): > 1 µM | IC50 (Flt3): > 1 µM

COc1ccc(CNC(=O)Cc2ccccc2C#Cc2ccnc3[nH]ccc23)cc1 [compound 75]
IC50 (VEGFR3): > 1 µM | IC50 (VEGFR2): > 1 µM | IC50 (Flt3): > 1 µM

Cc1cccc(C#Cc2ccnc3[nH]ccc23)n1 [compound 76]
IC50 (VEGFR3): > 1 µM | IC50 (VEGFR2): > 1 µM | IC50 (Flt3): > 1 µM

Cc1cc(C)cc(C#Cc2ccnc3[nH]ccc23)c1 [compound 77]
IC50 (VEGFR3): > 1 µM | IC50 (VEGFR2): > 1 µM | IC50 (Flt3): > 1 µM

FC(F)(F)Oc1ccccc1C#Cc1ccnc2[nH]ccc12 [compound 78]
IC50 (VEGFR3): > 1 µM | IC50 (VEGFR2): > 1 µM | IC50 (Flt3): > 1 µM

Nc1ccc(C#Cc2cnc3[nH]ccc3c2)cc1 [compound 79]
IC50 (VEGFR3): > 1 µM | IC50 (VEGFR2): > 1 µM | IC50 (Flt3): 0.1 to 1 µM

Fc1ccc(C#Cc2ccnc3[nH]ccc23)cc1 [compound 80]
IC50 (VEGFR3): > 1 µM | IC50 (VEGFR2): > 1 µM | IC50 (Flt3): > 1 µM

CS(=O)(=O)c1ccc(C#Cc2ccnc3[nH]ccc23)cc1 [compound 81]
IC50 (VEGFR3): > 1 µM | IC50 (VEGFR2): > 1 µM | IC50 (Flt3): > 1 µM

C(#Cc1ccnc2[nH]ccc12)c1cccnc1 [compound 82]
IC50 (VEGFR3): > 1 µM | IC50 (VEGFR2): > 1 µM | IC50 (Flt3): > 1 µM

C(#Cc1ccnc2[nH]ccc12)c1cncnc1 [compound 83]
IC50 (VEGFR3): > 1 µM | IC50 (VEGFR2): > 1 µM | IC50 (Flt3): > 1 µM

COc1cccnc1C#Cc1ccnc2[nH]ccc12 [compound 84]
IC50 (VEGFR3): > 1 µM | IC50 (VEGFR2): > 1 µM | IC50 (Flt3): > 1 µM

COc1ccc(C#Cc2ccnc3[nH]ccc23)cc1OC [compound 85]
IC50 (VEGFR3): > 1 µM | IC50 (VEGFR2): > 1 µM | IC50 (Flt3): > 1 µM

C(#Cc1ccnc2[nH]ccc12)c1ccccn1 [compound 86]
IC50 (VEGFR3): > 1 µM | IC50 (VEGFR2): > 1 µM | IC50 (Flt3): > 1 µM

C(#Cc1ccnc2[nH]ccc12)c1ccncc1 [compound 87]
IC50 (VEGFR3): > 1 µM | IC50 (VEGFR2): > 1 µM | IC50 (Flt3): > 1 µM

C(#Cc1ccnc2[nH]ccc12)c1ccc2cc[nH]c2c1 [compound 88]
IC50 (VEGFR3): > 1 µM | IC50 (VEGFR2): > 1 µM | IC50 (Flt3): > 1 µM
